Patent US20230011571A1, “SMALL MOLECULE FURIN INHIBITORS FOR TREATING INFECTIOUS DISEASES” (BP Asset V, Inc., priority 2019, published 2023)

Experiments:
Format in all cases: cell-based
dengue virus (DENV) = experiment: microbe, parasite or virus in culture; conditions: Dengue virus, Vero, 120 h, read-out: Percent viral inhibition DENY
Marburg virus (MARV) = experiment: organism not typed; conditions: Vero, 72 h, read-out: Percent viral inhibition MARV
[1] = tested on: Chikungunya virus (CHIKV); experiment: microbe, parasite or virus in culture; conditions: Chikungunya virus, Vero, 48 h, read-out: Percent viral inhibition CHKV

`CC(=O)NCC1CCN(Cc2cc(Oc3ccc(NCC(C)(C)N)nc3)cc(-c3cc(Cl)cc(Cl)c3)c2)CC1` [Example 105, N-((1-((5-((6-((2-amino-2-methylpropyl)amino)pyridin-3-yl)oxy)-3′,5′-dichloro-[1,1′-biphenyl]-3-yl)methyl)piperidin-4-yl)methyl)acetamide] gave an inhibition at 1 µM (dengue virus (DENV)) of 19.9%, an inhibition at 1 µM (Marburg virus (MARV)) of 0% and an inhibition at 1 µM [1] of 0%.
`CC(=O)NCC1(O)CCN(Cc2cc(Oc3ccc(N4CCNCC4)nc3)nc(-c3cc(Cl)cc(Cl)c3)c2)CC1` [Example 2, N-((1-((2-(3,5-dichlorophenyl)-6-((6-(piperazin-1-yl)pyridin-3-yl)oxy)pyridin-4-yl)methyl)-4-hydroxy-piperidin-4-yl)methyl)acetamide] gave an inhibition at 1 µM (dengue virus (DENV)) of 34.3%, an inhibition at 1 µM (Marburg virus (MARV)) of 60.4% and an inhibition at 1 µM [1] of 33.8%.
Compound `COCCN1CCN(c2ncc(Oc3cc(CN4CCC(CNC(C)=O)CC4)cc(-c4cc(Cl)cc(Cl)c4)n3)cn2)CC1` [Example 245, N-((1-((2-(3,5-dichlorophenyl)-6-((2-(4-(2-methoxyethyl)piperazin-1-yl)pyrimidin-5-yl)oxy)pyridin-4-yl)methyl)piperidin-4-yl)methyl)acetamide] has an inhibition at 1 µM (dengue virus (DENV)) of 53.3%, an inhibition at 1 µM (Marburg virus (MARV)) of 53.9% and an inhibition at 1 µM [1] of 24.1%.
Work on `O=C(O)CC1CCN(Cc2cc(Oc3ccc(N4CCN5CCC4C5)nn3)nc(-c3cc(Cl)cc(Cl)c3)c2)CC1` (stereo not drawn) [Example 344, 2-(1-((2-((6-(1,4-diazabicyclo[3.2.1]octan-4-yl)pyridazin-3-yl)oxy)-6-(3,5-dichlorophenyl)pyridin-4-yl)methyl)piperidin-4-yl)acetic acid] yielded an inhibition at 1 µM (dengue virus (DENV)) of 77.9%, an inhibition at 1 µM (Marburg virus (MARV)) of 43.5% and an inhibition at 1 µM [1] of 26.6%.
In the case of `CN1C[C@@H]2C[C@H]1CN2c1ccc(Oc2cc(CN3CCC(CC(=O)O)CC3)cc(-c3cc(Cl)cc(Cl)c3)n2)nn1` [Example 357, 2-(1-((2-(3,5-dichlorophenyl)-6-((6-((1S,4S)-5-methyl-2,5-diazabicyclo[2.2.1]heptan-2-yl)pyridazin-3-yl)oxy)pyridin-4-yl)methyl)piperidin-4-yl)acetic acid], the inhibition at 1 µM (dengue virus (DENV)) is reported as 61.2%, the inhibition at 1 µM (Marburg virus (MARV)) is reported as 100% and the inhibition at 1 µM [1] is reported as 38.6%.
Compound `CC(=O)NCC1CCN(Cc2cc(Oc3cnc(N4CCN(C)CC4)cn3)nc(-c3cc(Cl)cc(Cl)c3)c2)CC1` [Example 110, N-((1-((2-(3,5-dichlorophenyl)-6-((5-(4-methylpiperazin-1-yl)pyrazin-2-yl)oxy)pyridin-4-yl)methyl)piperidin-4-yl)methyl)acetamide] has an inhibition at 1 µM (dengue virus (DENV)) of 13.6%, an inhibition at 1 µM (Marburg virus (MARV)) of 59.5% and an inhibition at 1 µM [1] of 9.88%.
With `O=C(O)CC1CCN(Cc2cc(Oc3cnc(N4CC5CNCC5C4)nc3)nc(-c3cc(Cl)cc(Cl)c3)c2)CC1` (stereo not drawn) [Example 161, 2-(1-((2-(3,5-dichlorophenyl)-6-((2-(hexahydropyrrolo[3,4-c]pyrrol-2(1H)-yl)pyrimidin-5-yl)oxy)pyridin-4-yl)methyl)piperidin-4-yl)acetic acid] the inhibition at 1 µM (dengue virus (DENV)) was 33%, the inhibition at 1 µM (Marburg virus (MARV)) was 44.9% and the inhibition at 1 µM [1] was 28.5%.
For `CCN1C[C@@H]2C[C@H]1CN2c1ncc(Oc2cc(CN3CCC(CC(=O)O)CC3)cc(-c3cc(Cl)cc(Cl)c3)n2)cn1` [Example 232, 2-(1-((2-(3,5-dichlorophenyl)-6-((2-((1S,4S)-5-ethyl-2,5-diazabicyclo[2.2.1]heptan-2-yl)pyrimidin-5-yl)oxy)pyridin-4-yl)methyl)piperidin-4-yl)acetic acid], the inhibition at 1 µM (dengue virus (DENV)) was 19.5%, the inhibition at 1 µM (Marburg virus (MARV)) was 43.4% and the inhibition at 1 µM [1] was 37.1%.
Work on `CC(=O)NCC1CCN(Cc2cc(Oc3cnc(N4CCN(CCC(=O)O)CC4)nc3)cc(-c3cc(Cl)cc(Cl)c3)c2)CC1` [Example 168] yielded an inhibition at 1 µM (dengue virus (DENV)) of 38.9%, an inhibition at 1 µM (Marburg virus (MARV)) of 60.3% and an inhibition at 1 µM [1] of 29.6%.
Work on `COC(=O)NCC1(O)CCN(Cc2cc(Oc3ccc(N4CCNCC4)nc3)nc(-c3cc(Cl)cc(Cl)c3)c2)CC1` [Example 6, methyl ((1-((2-(3,5-dichlorophenyl)-6-((6-(piperazin-1-yl)pyridin-3-yl)oxy)pyridin-4-yl)methyl)-4-hydroxypiperidin-4-yl)methyl)carbamate] yielded an inhibition at 1 µM (dengue virus (DENV)) of 0%, an inhibition at 1 µM (Marburg virus (MARV)) of 0% and an inhibition at 1 µM [1] of 0%.
With `O=C(O)CCC1CCN(Cc2cc(Oc3ccc(N4CCN(CCO)CC4)nc3)nc(-c3cc(Cl)cc(Cl)c3)c2)CC1` [Example 314, 3-(1-((2-(3,5-dichlorophenyl)-6-((6-(4-(2-hydroxyethyl)piperazin-1-yl)pyridin-3-yl)oxy)pyridin-4-yl)methyl)piperidin-4-yl)propanoic acid] the inhibition at 1 µM (dengue virus (DENV)) was 7.86%, the inhibition at 1 µM (Marburg virus (MARV)) was 52.1% and the inhibition at 1 µM [1] was 32%.
Work on `COC(=O)NC(=O)NCC1CCN(Cc2cc(Oc3cnc(N4CCN(C)CC4)nc3)nc(-c3cc(Cl)cc(Cl)c3)c2)CC1` [Example 325, N-1-((1-((2-(3,5-dichlorophenyl)-6-((2-(4-methylpiperazin-1-yl)pyrimidin-5-yl)oxy)pyridin-4-yl)methyl)piperidin-4-yl)methyl)-N′-methoxyl-carbonylurea] yielded an inhibition at 1 µM (dengue virus (DENV)) of 5.08%, an inhibition at 1 µM (Marburg virus (MARV)) of 0% and an inhibition at 1 µM [1] of 0%.
`CN1CCN(c2ncc(Oc3cc(CN4CCC(CCS(N)(=O)=O)CC4)cc(-c4cc(Cl)cc(Cl)c4)n3)cn2)CC1` [Example 87, 2-(1-((2-(3,5-dichlorophenyl)-6-((2-(4-methylpiperazin-1-yl)pyrimidin-5-yl)oxy)pyridin-4-yl)methyl)piperidin-4-yl)ethanesulfonamide] gave an inhibition at 1 µM (dengue virus (DENV)) of 30.2%, an inhibition at 1 µM (Marburg virus (MARV)) of 30.3% and an inhibition at 1 µM [1] of 16.9%.
For `CC(=O)NCC1CCN(Cc2cc(Oc3ccc(N4CC[N+](C)([O-])CC4)nc3)nc(-c3cc(Cl)cc(Cl)c3)c2)CC1` [Example 178, 4-(5-((4-((4-(acetamidomethyl)piperidin-1-yl)methyl)-6-(3,5-dichlorophenyl)pyridin-2-yl)oxy)pyridin-2-yl)-1-methylpiperazinel-oxide], the inhibition at 1 µM (dengue virus (DENV)) was 71.1%, the inhibition at 1 µM (Marburg virus (MARV)) was 57.7% and the inhibition at 1 µM [1] was 30.4%.
For `CNCc1cc(Oc2ccc(N3CCNCC3)nc2)cc(-c2cc(Cl)cc(Cl)c2)c1` [Example 98, 1-(3′,5′-dichloro-5-((6-(piperazin-1-yl)pyridin-3-yl)oxy)-[1,1′-biphenyl]-3-yl)-N-methylmethanamine], the inhibition at 1 µM (dengue virus (DENV)) was 0%, the inhibition at 1 µM (Marburg virus (MARV)) was 0% and the inhibition at 1 µM [1] was 0%.
`CNC(=O)OCC1CCN(Cc2cc(Oc3cnc(N4CCN(C(C)CCC(=O)O)CC4)nc3)nc(-c3cc(Cl)cc(Cl)c3)c2)CC1` (stereo not drawn) [Example 208, 4-(4-(5-((6-(3,5-dichlorophenyl)-4-((4-(((methylcarbamoyl)oxy)methyl)piperidin-1-yl)methyl)pyridin-2-yl)oxy)pyrimidin-2-yl)piperazin-1-yl)pentanoic acid] gave an inhibition at 1 µM (dengue virus (DENV)) of 68.6%, an inhibition at 1 µM (Marburg virus (MARV)) of 55.2% and an inhibition at 1 µM [1] of 46.3%.
In the case of `CC(=O)NCC1CCN(Cc2cc(Oc3ccc(N4CCN(CCS(C)(=O)=O)CC4)nc3)nc(-c3cc(Cl)cc(Cl)c3)c2)CC1` [Example 12, N-((1-((2-(3,5-dischlorophenyl)-6-((6-(4-(2-(methylsulfonyl)ethyl)piperazin-1-yl)pyridin-3-yl)oxy)pyridin-4-yl)methyl)piperidin-4-yl)methyl)acetamide], the inhibition at 1 µM (dengue virus (DENV)) is reported as 58.3%, the inhibition at 1 µM (Marburg virus (MARV)) is reported as 44.5% and the inhibition at 1 µM [1] is reported as 24.7%.
Compound `C[C@]1(O)C[C@H](N2CCN(c3ncc(Oc4cc(CN5CCC(CC(=O)O)CC5)cc(-c5cc(Cl)cc(Cl)c5)n4)cn3)CC2)C1` [Example 25, 2-(1-((2-(3,5-dichlorophenyl)-6-((2-(4-((1r,3r)-3-hydroxy-3-methylcyclobutyl)piperazin-1-yl)pyrimidin-5-yl)oxy)pyridin-4-yl)methyl)piperidin-4-yl)acetic acid] has an inhibition at 1 µM (dengue virus (DENV)) of 13.7%, an inhibition at 1 µM (Marburg virus (MARV)) of 65.5% and an inhibition at 1 µM [1] of 26.3%.
Work on `FC1CCN(Cc2cc(Oc3cnc(N4CCN5CCC4C5)nc3)nc(-c3cc(Cl)cc(Cl)c3)c2)CC1` (stereo not drawn) [Example 338, 4-(5-((6-(3,5-dichlorophenyl)-4-((4-fluoropiperidin-1-yl)methyl)pyridin-2-yl)oxy)pyrimidin-2-yl)-1,4-diazabicyclo[3.2.1]octane] yielded an inhibition at 1 µM (dengue virus (DENV)) of 55.4%, an inhibition at 1 µM (Marburg virus (MARV)) of 12.2% and an inhibition at 1 µM [1] of 19.3%.
`C[C@H](CC1CCN(Cc2cc(Oc3ccc(N4CCN(C)CC4)nn3)nc(-c3cc(Cl)cc(Cl)c3)c2)CC1)C(=O)O` [Example 364, (R)-3-(1-((2-(3,5-dichlorophenyl)-6-((6-(4-methylpiperazin-1-yl)pyridazin-3-yl)oxy)pyridin-4-yl)methyl)piperidin-4-yl)-2-methylpropanoic acid] was tested, and the inhibition at 1 µM (dengue virus (DENV)) was 40%, the inhibition at 1 µM (Marburg virus (MARV)) was 47.6% and the inhibition at 1 µM [1] was 31.4%.
`CC(=O)NCC1CCN(Cc2cc(Oc3cnc(N4CCN(CCS(N)(=O)=O)CC4)nc3)nc(-c3cc(Cl)cc(Cl)c3)c2)CC1` [Example 286, N-((1-((2-(3,5-dichlorophenyl)-6-((2-(4-(2-sulfamoylethyl)piperazin-1-yl)pyrimidin-5-yl)oxy)pyridin-4-yl)methyl)piperidin-4-yl)methyl)acetamide] was tested, and the inhibition at 1 µM (dengue virus (DENV)) was 0%, the inhibition at 1 µM (Marburg virus (MARV)) was 19.2% and the inhibition at 1 µM [1] was 0%.
`NCCNc1ccc(Oc2cc(CN3CCOCC3)cc(-c3cc(Cl)cc(Cl)c3)c2)cn1` [Example 99, N1-(5-((3′,5′-dichloro-5-(morpholinomethyl)-[1,1′-biphenyl]-3-yl)oxy)pyridin-2-yl)ethane-1,2-diamine] was tested, and the inhibition at 1 µM (dengue virus (DENV)) was 15.4%, the inhibition at 1 µM (Marburg virus (MARV)) was 0% and the inhibition at 1 µM [1] was 0%.
`CS(=O)(=O)CCCN1CCN(c2ccc(Oc3cc(CN4CCC(CCC(=O)O)CC4)cc(-c4cc(Cl)cc(Cl)c4)n3)cn2)CC1` [Example 271, 3-(1-((2-(3,5-dichlorophenyl)-6-((6-(4-(3-(methylsulfonyl)propyl)piperazin-1-yl)pyridin-3-yl)oxy)pyridin-4-yl)methyl)piperidin-4-yl)propanoic acid] gave an inhibition at 1 µM (dengue virus (DENV)) of 0%, an inhibition at 1 µM (Marburg virus (MARV)) of 59.7% and an inhibition at 1 µM [1] of 22.5%.
